From publication PMC9508756, “Selected coffee (Coffea arabica L.) extracts inhibit intestinal α-glucosidases activities in-vitro and postprandial hyperglycemia in SD Rats” (BMC Complementary Medicine and Therapies, 2022)

What was measured:
Sprague–Dawley (SD) rats [1] = experiment: Starch loading test, postprandial blood glucose in SD rats; assay type: in vivo, rat; settings: extracts 0.5 g/kg
Text: (§1) All animal procedures were approved by the Institutional Animal Care and Use Com-[…]) of […] University (Approval number: HNU2016-0015-1). This study is reported in accordance with ARRIVE guidelines (https://arriveguidelines.org). Four-week-old male Sprague-Dawley (SD) rats were purchased from Joongang Experimental Animal Co. (Seoul, Korea) and fed with a standard diet (Samyang Diet Co., Seoul, Korea) and with water ad libitum for one week. Effect on hyperglycemia-induced by carbohydrate loads in Sprague-Dawley (SD) rats was determined by the inhibitory action of coffee extracts on postprandial hyperglycemia as described in [30]. […] In the case of the administration group, administration samples were prepared by mixing starch or sugar with coffee extracts by dose in advance were orally administrated using a zonde injection needle. […] The glucose level in blood was determined by the glucose oxidase method and compared with that of the control group. The parameters for blood glucose levels will be calculated Maximum observed peak blood glucose level (Cmax) and the time at which it is observed (Tmax) were determined based on the observed data. […] In addition, statistical significances in the animal study were determined by Student's t-test (*p < 0.05; **p < 0.01; and *** p < 0.001). […]

[2] = molecular target: rat intestinal α-glucosidase; experiment: Rat small intestinal α-glucosidase inhibition assay (pNPG substrate); assay type: biochemical
Procedure: In order to investigate the inhibitory effect of coffee extracts on the absorption of glucose, rat intestinal α-glucosidase inhibitory activity was determined using the substrate p-nitrophenyl-α-D-glucopyranoside (pNPG) according to [28] with a slight modification. A total of 0.6 g of rat-intestinal acetone powder was suspended in 9 mL of 0.1 M sodium phosphate buffer 0.9%, and the suspension was sonicated for 12 times 30 s at 4 °C. It was then centrifuged (13,000 × g, 30 min, 4 °C), and the resulting supernatant was used for the assay. […] Absorbance was measured at 405 nm and compared to a control that had 50 μL of buffer solution in place of the extract by Micro-Plate Reader (SpectraMAx® i3, Molecular devices LLC., Wals, Austria). The rat α-glucosidase inhibitory activity was expressed as percent inhibition and was calculated as follows: Inhibition%=ΔAControl405-ΔAExtract405/ΔAControl405×100
All data are presented as mean ± S.D. Statistical analyses were carried out using the statistical packages SPSS 11 (Statistical Package for Social Science 11, SPSS Inc., Chicago, IL, USA) program and the significance of each group was verified with the analyses of one-way ANOVA followed by Duncan’s test of p < 0.05. In addition, statistical significances in the animal study were determined by Student’s t-test (*p < 0.05; **p < 0.01; and *** p < 0.001). […]

Sprague–Dawley (SD) rats [3] = experiment: Sucrose loading test, postprandial blood glucose in SD rats; assay type: in vivo, rat; settings: sucrose 2.0 g/kg oral, extracts 0.5 g/kg, Acarbose 5.0 mg/kg, mean ± S.D., n = 5
Text: as §1

C[C@H]1O[C@H](O[C@H]2[C@H](O)[C@@H](O)[C@@H](O[C@H]3[C@H](O)[C@@H](O)C(O)O[C@@H]3CO)O[C@@H]2CO)[C@H](O)[C@@H](O)[C@@H]1N[C@H]1C=C(CO)[C@@H](O)[C@H](O)[C@H]1O (some centres unmarked) [Acarbose, acarbose]
AUCt (blood glucose-time curve) (Sprague–Dawley (SD) rats [1]; starch 2.0 g/kg oral, Acarbose 5.0 mg/kg, mean ± S.D., n = 5): 389.0 ± 36.8^*** hr·mg/dL | blood glucose level after starch loading compared to control (Sprague–Dawley (SD) rats [1]; starch 2.0 g/kg, Acarbose 5 mg/kg oral): significantly higher blood lowering than all the coffee types and the controls | IC50 rat intestinal α-glucosidase ([2]; Ethanol extract row): < 500 µg/mL | IC50 rat intestinal α-glucosidase ([2]; Water extract row): < 500 µg/mL | AUCt (blood glucose-time curve) (Sprague–Dawley (SD) rats [3]): 376.2 ± 17.2^*** hr·mg/dL
